Format in all cases: cell-based
One experiment deals with Pyricularia oryzae. As to the kind of experiment: microbe, parasite or virus in culture. To be noted: 168 h, read-out: % control compared to the untreated check (radial growth).
In another experiment the test system is Rhizoctonia solani. The experiment in a line: Rhizoctonia solani (rice sheath blight/potato black scurf) in vitro test, radial growth on Potato Dextrose Agar. To be noted: 168 h, 300 ppm, seven days, 25° C., read-out: % control compared to the untreated check (radial growth).
In another experiment the test system is Botrytis cinerea. As to the kind of experiment: Botrytis cinerea (gray mold) in vitro test, radial growth on Potato Dextrose Agar. As to conditions: 168 h, 300 ppm, seven days, 22° C., read-out: % (control) compared to the untreated check (radial growth).
The test system of the next experiment is Alternaria solani. The experiment in a line: Alternaria solani (early blight of tomato/potato) in vitro test, radial growth on Potato Dextrose Agar. As to conditions: 168 h, 300 ppm, seven days, 25° C., read-out: % control compared to the untreated check (radial growth).
The test system of the next experiment is Colletotrichum capsici. As to the kind of experiment: Colletotrichum capsici (anthracnose) in vitro test, radial growth on Potato Dextrose Agar. As to conditions: Colletotrichum truncatum, 168 h; 300 ppm; seven days, 25° C.; read-out: % control compared to the untreated check (radial growth).
In the next experiment the test system is Septoria lycopersici. The experiment in a line: Septoria lycopersici (leaf spot of tomato) in vitro test, radial growth on Potato Dextrose Agar. To be noted: 168 h, seven days, 25° C., read-out: % control compared to the untreated check (radial growth).
The subject of another experiment is Fusarium culmorum. As to the kind of experiment: Fusarium culmorum (foot rot of cereals) in vitro test, radial growth on Potato Dextrose Agar. As to conditions: Fusarium culmorum, 168 h, read-out: % control compared to the untreated check (radial growth).

Molecules are shown by their SMILES.

As to `CCN(C)C=Nc1cc(C#N)c(Cc2cccc(Cl)c2)cc1C` [Compound 249, N′-(4-(3-chlorobenzyl)-5-cyano-2-methylphenyl)-N-ethyl-N-methylformimidamide], the inhibition of growth at 300 ppm in the experiment with Pyricularia oryzae is > 75%; in the experiment on Rhizoctonia solani, > 80%; in the experiment on Botrytis cinerea, > 80%; in the experiment with Alternaria solani, > 75%; in the experiment on Colletotrichum capsici, > 80%; in the experiment with Septoria lycopersici, > 70%. For the same molecule, in the experiment with Fusarium culmorum, the inhibition of growth at 300 ppm is 75%.
In the case of `CCN(C)C=Nc1cc(C)c(Cc2cc(F)ccc2C)cc1Cl` [Compound 165, N′-(2-chloro-4-(5-fluoro-2-methylbenzyl)-5-methylphenyl)-N-ethyl-N-methylformimidamide], the inhibition of growth at 300 ppm is > 75% in the experiment on Pyricularia oryzae; > 80% in the experiment on Rhizoctonia solani; > 80% with Botrytis cinerea; > 75% in the experiment on Alternaria solani; > 80% in the experiment with Colletotrichum capsici; > 70% in the experiment with Septoria lycopersici. Moreover, the inhibition of growth at 300 ppm in the experiment with Fusarium culmorum amounted to 75%.
On to `CCN(C)C=Nc1cc(C)c(Cc2cc(C)cc(C)c2)cc1C` [Compound 114, N′-(4-(3,5-dimethylbenzyl)-2,5-dimethylphenyl)-N-ethyl-N-methylformimidamide], for which the inhibition of growth at 300 ppm with Pyricularia oryzae was > 75%; with Rhizoctonia solani it was > 80%; in the experiment on Botrytis cinerea, > 80%; in the experiment with Alternaria solani it was > 75%; in the experiment on Colletotrichum capsici, > 80%; with Septoria lycopersici, > 70%. For the same molecule, the inhibition of growth at 300 ppm in the experiment on Fusarium culmorum is 75%.
With `CCN(C)C=Nc1cc(C)c(Cc2cccc(OC(F)(F)F)c2)cc1F` [Compound 206, N-ethyl-N′-(2-fluoro-5-methyl-4-(3-(trifluoromethoxy)benzyl)phenyl)-N-methylformimidamide], the inhibition of growth at 300 ppm in the experiment on Pyricularia oryzae was > 75%; in the experiment with Rhizoctonia solani, > 80%; in the experiment with Botrytis cinerea, > 80%; in the experiment with Alternaria solani, > 75%; with Colletotrichum capsici, > 80%; in the experiment on Septoria lycopersici, > 70%. In the experiment on Fusarium culmorum, the inhibition of growth at 300 ppm was 75%.
Consider `CCN(C)C=Nc1cc(C)c(Cc2cc(F)cc(F)c2)cc1Cl` [Compound 129, N′-(2-chloro-4-(3,5-difluorobenzyl)-5-methylphenyl)-N-ethyl-N-methylformimidamide], for which the inhibition of growth at 300 ppm in the experiment on Pyricularia oryzae is > 75%; in the experiment on Rhizoctonia solani it was > 80%; with Botrytis cinerea, > 80%; in the experiment on Alternaria solani, > 75%; in the experiment with Colletotrichum capsici it was > 80%; in the experiment with Septoria lycopersici it was > 70%. In addition, the inhibition of growth at 300 ppm in the experiment with Fusarium culmorum turned out to be 75%.
`CCN(C)C=Nc1cc(C)c(Cc2ccccc2C)cc1F` [Compound 212, N-ethyl-N′-(2-fluoro-5-methyl-4-(2-methylbenzyl)phenyl)-N-methylformimidamide]: the inhibition of growth at 300 ppm is > 75% with Pyricularia oryzae; > 80% with Rhizoctonia solani; > 80% in the experiment on Botrytis cinerea; > 75% in the experiment on Alternaria solani; > 80% in the experiment on Colletotrichum capsici; > 70% in the experiment on Septoria lycopersici. Also, the inhibition of growth at 300 ppm in the experiment with Fusarium culmorum turned out to be 75%.
With `CCN(C)C=Nc1cc(C)c(Cc2ccc(F)c(C)c2)cc1C` [Compound 109, N-ethyl-N′-(4-(4-fluoro-3-methylbenzyl)-2,5-dimethylphenyl)-N-methylformimidamide], the inhibition of growth at 300 ppm in the experiment on Pyricularia oryzae is > 75%; in the experiment with Rhizoctonia solani, > 80%; with Botrytis cinerea it was > 80%; in the experiment on Alternaria solani, > 75%; in the experiment on Colletotrichum capsici, > 80%; with Septoria lycopersici it was > 70%. Further, the inhibition of growth at 300 ppm with Fusarium culmorum came to 75%.
Turning to `Cc1cc(N=CNC(C)C)c(C)cc1Cc1ccccc1F` [Compound 66, N′-(4-(2-fluorobenzyl)-2,5-dimethylphenyl)-N-isopropylformimidamide], the inhibition of growth at 300 ppm is > 75% in the experiment on Pyricularia oryzae; > 80% in the experiment on Rhizoctonia solani; > 80% in the experiment on Botrytis cinerea; > 75% in the experiment with Alternaria solani; > 80% in the experiment with Colletotrichum capsici; > 70% in the experiment on Septoria lycopersici. Besides, the inhibition of growth at 300 ppm with Fusarium culmorum worked out at 75%.
For the molecule `CCN(C)C=Nc1cc(C)c(Cc2ccc(Cl)cc2Cl)cc1C` [Compound 162, N′-(4-(2,4-dichlorobenzyl)-2,5-dimethylphenyl)-N-ethyl-N-methylformimidamide], the inhibition of growth at 300 ppm in the experiment with Pyricularia oryzae is > 75%; with Rhizoctonia solani, > 80%; with Botrytis cinerea, > 80%; in the experiment with Alternaria solani, > 75%; in the experiment with Colletotrichum capsici it was > 80%; in the experiment with Septoria lycopersici, > 70%. Besides, in the experiment on Fusarium culmorum, the inhibition of growth at 300 ppm was 75%.
Regarding `CCN(C)C=Nc1cc(C)c(Cc2ccc(C)c(F)c2)cc1C` [Compound 144, N-ethyl-N′-(4-(3-fluoro-4-methylbenzyl)-2,5-dimethylphenyl)-N-methylformimidamide], the inhibition of growth at 300 ppm with Pyricularia oryzae is > 75%; in the experiment on Rhizoctonia solani, > 80%; in the experiment on Botrytis cinerea it was > 80%; with Alternaria solani, > 75%; in the experiment on Colletotrichum capsici, > 80%; in the experiment with Septoria lycopersici, > 70%. In addition, the inhibition of growth at 300 ppm in the experiment on Fusarium culmorum is 75%.
In the case of `CCN(C)C=Nc1cc(C)c(Cc2ccc(Cl)c(OC(F)(F)F)c2)cc1C` [Compound 145, N′-(4-(4-chloro-3-(trifluoromethoxy)benzyl)-2,5-dimethylphenyl)-N-ethyl-N-methylformimidamide], the inhibition of growth at 300 ppm was > 75% in the experiment on Pyricularia oryzae; > 80% with Rhizoctonia solani; > 80% in the experiment on Botrytis cinerea; > 75% in the experiment with Alternaria solani; > 80% with Colletotrichum capsici; > 70% in the experiment with Septoria lycopersici. The inhibition of growth at 300 ppm in the experiment with Fusarium culmorum came to 75%.
Take `C=CCN(C)C=Nc1cc(C)c(Cc2ccccc2Cl)cc1C` [Compound 84, N-allyl-N′-(4-(2-chlorobenzyl)-2,5-dimethylphenyl)-N-methylformimidamide]: the inhibition of growth at 300 ppm was > 75% with Pyricularia oryzae; > 80% in the experiment with Rhizoctonia solani; > 80% in the experiment on Botrytis cinerea; > 75% in the experiment with Alternaria solani; > 80% with Colletotrichum capsici; > 70% in the experiment on Septoria lycopersici. In addition, the inhibition of growth at 300 ppm in the experiment on Fusarium culmorum came out at 75%.
For the molecule `CCN(C)C=Nc1cc(C)c(Cc2ccccc2F)cc1F` [Compound 214, N-ethyl-N′-(2-fluoro-4-(2-fluorobenzyl)-5-methylphenyl)-N-methylformimidamide], the inhibition of growth at 300 ppm with Pyricularia oryzae is > 75%; with Rhizoctonia solani, > 80%; with Botrytis cinerea, > 80%; in the experiment with Alternaria solani it was > 75%; in the experiment with Colletotrichum capsici, > 80%; in the experiment with Septoria lycopersici, > 70%. The inhibition of growth at 300 ppm in the experiment on Fusarium culmorum is 75%.
